Experimental data taken from patent publication US20240215582A1, “METHODS OF CONTROLLING PLANT PATHOGENS” (Valent BioSciences LLC, priority 2022, published 2024).
Where two headings read alike, the source gives them in different places.

Assays:
[1] = system: Botrytis cinerea; assay: In vitro growth on cervinomycin-amended growth media; assay type: cell-based
[2] = system: Fusarium graminearum; assay type: cell-based
[3] = system: Phytophthora capsici; assay: In vitro growth on cervinomycin-amended growth media; assay type: cell-based
[4] = system: Zymoseptoria tritici; assay: as above; assay type: cell-based
[5] = system: Ustilago maydis; assay: as above; assay type: cell-based
[6] = system: Rhynchosporium secalis; assay: as above; assay type: cell-based
[7] = system: Pythium ultimum; assay: as above; assay type: cell-based
[8] = system: Cladosporium carpophilum; assay: as above; assay type: cell-based
[9] = system: Cochliobolus miyabeanus; assay: as above; assay type: cell-based
[10] = system: Magnaporthe oryzae; assay type: in vivo
[11] = system: Puccinia triticina; assay: Host plant efficacy assay (wheat); assay type: in vivo
[12] = system: Zymoseptoria tritici; assay: Host plant efficacy assay (wheat); assay type: in vivo
[13] = system: Pyrenophora teres; assay: Host plant efficacy assay (barley); assay type: in vivo
[14] = system: Phakopsora pachyrhizi; assay: Host plant efficacy assay (soybean); assay type: in vivo
[15] = system: Phytophthora infestans; assay type: in vivo
[16] = system: Pseudoperonospora cubensis; assay: Host plant efficacy assay (cucumber); assay type: in vivo
[17] = system: Sclerotinia sclerotiorum; assay: Host plant efficacy assay (common bean); assay type: in vivo
[18] = system: Podosphaera xanthii; assay: Host plant efficacy assay (cucumber); assay type: in vivo
[19] = system: Erysiphe diffusa; assay: Host plant efficacy assay (soybean); assay type: in vivo
[20] = system: Alternaria solani; assay: Host plant efficacy assay (tomato); assay type: in vivo
[21] = system: Pseudoperonospora cubensis; assay: Field and greenhouse trials (cucumber, squash); assay type: in vivo; details: P. cubensis
[22] = system: Botrytis cinerea; assay: Foliar application, inoculated plants, disease severity; details: for Disease severity B. cinerea: carrier control severity 63.3; for percent control B. cinerea: vs carrier control
Procedure: Biological efficacy assays utilizing cervinomycins were conducted on Pseudoperonospora cubensis and Botrytis cinerea. […] Once plants had dried they were inoculated with the pathogen, then were stored in a controlled climate chamber under high humidity for 4-6 days. At the end of the experiment disease severity was determined based on the percentage of plant tissue that was visually symptomatic.

[23] = system: Plasmospora viticola; assay: Efficacy on grape plants infected with Plasmospora viticola; details: for % control Plasmospora viticola 1DAI: 1 day after infection; for % control Plasmospora viticola 1DAI / % control Plasmospora viticola 7DBI / % control Plasmospora viticola 1DB1: grape plants; for % control Plasmospora viticola 7DBI: 7 days before infection; for % control Plasmospora viticola 1DB1: 1 day before infection
Source text: Treatments occurred at either 1 day before infection (“1 DBI”), 7 days before infection (“7 DBI”) or 1 day after infection (“1 DAI”).

[24] = 500 ppm A2, untreated severity 34
[25] = 1000 ppm A2, untreated severity 34
[26] = 1500 ppm A2, untreated severity 34

In the case of `COc1cc2oc3c(c(=O)c2cc1OC)C(=O)c1c(ccc2cc4c(c(O)c12)C(=O)N1CCOC1(C)C4)C3=O` (centres unmarked) [Cervinomycin A2, cervinomycin A2], the “% Control Botrytis cinerea” value ([1]; 0.004 ppm in growth media) is reported as 3%, the “% Control Botrytis cinerea” value ([1]; 0.016 ppm in growth media) is reported as 2% and the “% Control Botrytis cinerea” value ([1]; 0.063 ppm in growth media) is reported as 70%. The “% Control Botrytis cinerea” value ([1]; 0.25 ppm in growth media) was 100%, the “% Control Botrytis cinerea” value ([1]; 1 ppm in growth media) was 100% and the “% Control Fusarium graminearum” value ([2]; 0.004 ppm in growth media) was 8%. For the same molecule, the “% Control Fusarium graminearum” value ([2]; 0.016 ppm in growth media) was 4%, the “% Control Fusarium graminearum” value ([2]; 0.063 ppm in growth media) was 9% and the “% Control Fusarium graminearum” value ([2]; 0.25 ppm in growth media) was 0%. The “% Control Fusarium graminearum” value ([2]; 1 ppm in growth media) was 14%, the “% Control Phytophthora capsici” value ([3]; 0.004 ppm in growth media) was 4% and the “% Control Phytophthora capsici” value ([3]; 0.016 ppm in growth media) was 75%. The “% Control Phytophthora capsici” value ([3]; 0.063 ppm in growth media) was 90%, the “% Control Phytophthora capsici” value ([3]; 0.25 ppm in growth media) was 99% and the “% Control Phytophthora capsici” value ([3]; 1 ppm in growth media) was 100%. The “% Control Zymoseptoria tritici” value ([4]; 0.004 ppm in growth media) was 1%, the “% Control Zymoseptoria tritici” value ([4]; 0.016 ppm in growth media) was 2% and the “% Control Zymoseptoria tritici” value ([4]; 0.063 ppm in growth media) was 6%. The “% Control Zymoseptoria tritici” value ([4]; 0.25 ppm in growth media) was 62%, the “% Control Zymoseptoria tritici” value ([4]; 1 ppm in growth media) was 100% and the “% Control Ustilago maydis” value ([5]; 0.004 ppm in growth media) was 6%. For the same molecule, the “% Control Ustilago maydis” value ([5]; 0.016 ppm in growth media) was 12%, the “% Control Ustilago maydis” value ([5]; 0.063 ppm in growth media) was 90% and the “% Control Ustilago maydis” value ([5]; 0.25 ppm in growth media) was 100%. The “% Control Ustilago maydis” value ([5]; 1 ppm in growth media) was 100%, the “% Control Rhynchosporium secalis” value ([6]; 0.004 ppm in growth media) was 21% and the “% Control Rhynchosporium secalis” value ([6]; 0.016 ppm in growth media) was 71%. For the same molecule, the “% Control Rhynchosporium secalis” value ([6]; 0.063 ppm in growth media) was 98%, the “% Control Rhynchosporium secalis” value ([6]; 0.25 ppm in growth media) was 99% and the “% Control Rhynchosporium secalis” value ([6]; 1 ppm in growth media) was 100%. For the same molecule, the “% Control Pythium ultimum” value ([7]; 0.004 ppm in growth media) was 0%, the “% Control Pythium ultimum” value ([7]; 0.016 ppm in growth media) was 13% and the “% Control Pythium ultimum” value ([7]; 0.063 ppm in growth media) was 99%. For the same molecule, the “% Control Pythium ultimum” value ([7]; 0.25 ppm in growth media) was 96%, the “% Control Pythium ultimum” value ([7]; 1 ppm in growth media) was 99% and the “% Control Cladosporium carpophilum” value ([8]; 0.004 ppm in growth media) was 0%. For the same molecule, the “% Control Cladosporium carpophilum” value ([8]; 0.016 ppm in growth media) was 0%, the “% Control Cladosporium carpophilum” value ([8]; 0.063 ppm in growth media) was 46% and the “% Control Cladosporium carpophilum” value ([8]; 0.25 ppm in growth media) was 99%. The “% Control Cladosporium carpophilum” value ([8]; 1 ppm in growth media) was 99%, the “% Control Cochliobolus miyabeanus” value ([9]; 0.004 ppm in growth media) was 0% and the “% Control Cochliobolus miyabeanus” value ([9]; 0.016 ppm in growth media) was 20%. For the same molecule, the “% Control Cochliobolus miyabeanus” value ([9]; 0.063 ppm in growth media) was 49%, the “% Control Cochliobolus miyabeanus” value ([9]; 0.25 ppm in growth media) was 73% and the “% Control Cochliobolus miyabeanus” value ([9]; 1 ppm in growth media) was 87%. The “% control Magnaporthe oryzae Rice 1DBI” value ([10]; 11.3 ppm) was 0 (0 (about 0%)), the “% control Magnaporthe oryzae Rice 1DBI” value ([10]; 45 ppm) was 0 (0 (about 0%)) and the “% control Magnaporthe oryzae Rice 1DBI” value ([10]; 180 ppm) was 0 (0 (about 0%)). For the same molecule, the “% control Puccinia triticina Wheat 6DBI” value ([11]; 11.3 ppm) was 0 (0 (about 0%)), the “% control Puccinia triticina Wheat 6DBI” value ([11]; 45 ppm) was 0 (0 (about 0%)) and the “% control Puccinia triticina Wheat 6DBI” value ([11]; 180 ppm) was 0 (0 (about 0%)). The “% control Zymoseptoria tritici Wheat 3DAI” value ([12]; 11.3 ppm) was 0 (0 (about 0%)), the “% control Zymoseptoria tritici Wheat 4DBI” value ([12]; 11.3 ppm) was 0 (0 (about 0%)) and the “% control Zymoseptoria tritici Wheat 3DAI” value ([12]; 45 ppm) was 0 (0 (about 0%)). For the same molecule, the “% control Zymoseptoria tritici Wheat 4DBI” value ([12]; 45 ppm) was 0 (0 (about 0%)), the “% control Zymoseptoria tritici Wheat 3DAI” value ([12]; 180 ppm) was 0 (0 (about 0%)) and the “% control Zymoseptoria tritici Wheat 4DBI” value ([12]; 180 ppm) was 0 (0 (about 0%)). For the same molecule, the “% control Pyrenophora teres Barley 1DBI” value ([13]; 11.3 ppm) was 0 (0 (about 0%)), the “% control Pyrenophora teres Barley 1DBI” value ([13]; 45 ppm) was 0 (0 (about 0%)) and the “% control Pyrenophora teres Barley 1DBI” value ([13]; 180 ppm) was 0 (0 (about 0%)). For the same molecule, the “% control Phakopsora pachyrhizi Soybean 3DAI” value ([14]; 11.3 ppm) was 0 (0 (about 0%)), the “% control Phakopsora pachyrhizi Soybean 4DBI” value ([14]; 11.3 ppm) was 0 (0 (about 0%)) and the “% control Phakopsora pachyrhizi Soybean 3DAI” value ([14]; 45 ppm) was 0 (0 (about 0%)). The “% control Phakopsora pachyrhizi Soybean 4DBI” value ([14]; 45 ppm) was 0 (0 (about 0%)), the “% control Phakopsora pachyrhizi Soybean 3DAI” value ([14]; 180 ppm) was 0 (0 (about 0%)) and the “% control Phakopsora pachyrhizi Soybean 4DBI” value ([14]; 180 ppm) was 2 (2 (about 50%)). For the same molecule, the “% control Phytophthora infestans Tomato 1DBI” value ([15]; 11.3 ppm) was 0 (0 (about 0%)), the “% control Phytophthora infestans Tomato 1DBI” value ([15]; 45 ppm) was 0 (0 (about 0%)) and the “% control Phytophthora infestans Tomato 1DBI” value ([15]; 180 ppm) was 3 (3 (about 70%)). The “% control Pseudoperonospora cubensis Cucumber 1DBI” value ([16]; 11.3 ppm) was 0 (0 (about 0%)), the “% control Pseudoperonospora cubensis Cucumber 1DBI” value ([16]; 45 ppm) was 0 (0 (about 0%)) and the “% control Pseudoperonospora cubensis Cucumber 1DBI” value ([16]; 180 ppm) was 3 (3 (about 70%)). The “% control Sclerotinia sclerotiorum Common bean 1DBI” value ([17]; 11.3 ppm) was 0 (0 (about 0%)), the “% control Sclerotinia sclerotiorum Common bean 1DBI” value ([17]; 45 ppm) was 0 (0 (about 0%)) and the “% control Sclerotinia sclerotiorum Common bean 1DBI” value ([17]; 180 ppm) was 0 (0 (about 0%)). For the same molecule, the “% control Podosphaera xanthii Cucumber 1DBI” value ([18]; 11.3 ppm) was 0 (0 (about 0%)), the “% control Podosphaera xanthii Cucumber 1DBI” value ([18]; 45 ppm) was 0 (0 (about 0%)) and the “% control Podosphaera xanthii Cucumber 1DBI” value ([18]; 180 ppm) was 0 (0 (about 0%)). For the same molecule, the “% control Erysiphe diffusa Soybean 2DAI” value ([19]; 11.3 ppm) was 0 (0 (about 0%)), the “% control Erysiphe diffusa Soybean 2DAI” value ([19]; 45 ppm) was 0 (0 (about 0%)) and the “% control Erysiphe diffusa Soybean 2DAI” value ([19]; 180 ppm) was 0 (0 (about 0%)). For the same molecule, the “% control Alternaria solani Tomato 1DBI” value ([20]; 11.3 ppm) was 0 (0 (about 0%)), the “% control Alternaria solani Tomato 1DBI” value ([20]; 45 ppm) was 0 (0 (about 0%)) and the “% control Alternaria solani Tomato 1DBI” value ([20]; 180 ppm) was 0 (0 (about 0%)). For the same molecule, the “% Control” value [21, 24] was 27%, the “Disease Severity” value [21, 24] was 25% and the “% Control” value [21, 25] was 22%. For the same molecule, the “Disease Severity” value [21, 25] was 26%, the “% Control” value [21, 26] was 44% and the “Disease Severity” value [21, 26] was 19%. For the same molecule, the “Disease severity B. cinerea” value ([22]; 1 ppm foliar) was 58%, the “percent control B. cinerea” value ([22]; 1 ppm foliar) was “(9%)” and the “Disease severity B. cinerea” value ([22]; 3 ppm foliar) was 45%. The “percent control B. cinerea” value ([22]; 3 ppm foliar) was “(29%)”, the “Disease severity B. cinerea” value ([22]; 6 ppm foliar) was 45% and the “percent control B. cinerea” value ([22]; 6 ppm foliar) was “(29%)”. The “Disease severity B. cinerea” value ([22]; 12 ppm foliar) was 30%, the “percent control B. cinerea” value ([22]; 12 ppm foliar) was “(53%)” and the “Disease severity B. cinerea” value ([22]; 25 ppm foliar) was 24%. For the same molecule, the “percent control B. cinerea” value ([22]; 25 ppm foliar) was “(63%)”, the “Disease severity B. cinerea” value ([22]; 50 ppm foliar) was 9% and the “percent control B. cinerea” value ([22]; 50 ppm foliar) was “(87%)”. The “control of Botrytis cinerea (summary of Table 3)” value ([22]; foliar application) was “significant control”, the “control of P. viticiola (summary of Table 1)” value ([23]; 13-800 ppm) was “significant control” and the “% control Plasmospora viticola 1DAI” value ([23]; 13 ppm) was 0%. For the same molecule, the “% control Plasmospora viticola 7DBI” value ([23]; 13 ppm) was 61%, the “% control Plasmospora viticola 1DB1” value ([23]; 50 ppm) was 100% and the “% control Plasmospora viticola 7DBI” value ([23]; 50 ppm) was 91%. For the same molecule, the “% control Plasmospora viticola 1DAI” value ([23]; 200 ppm) was 0%, the “% control Plasmospora viticola 1DB1” value ([23]; 200 ppm) was 100% and the “% control Plasmospora viticola 1DAI” value ([23]; 800 ppm) was 5%. For the same molecule, the “% control Plasmospora viticola 1DB1” value ([23]; 800 ppm) was 100% and the “% control Plasmospora viticola 7DBI” value ([23]; 800 ppm) was 100%.
